{"source": "patent US20140371137A1", "about": "“PREPARATION OF PNA-6-AMINOGLUCOSAMINE CONJUGATES AS ANTIVIRAL AGENTS” (priority 2013, published 2014)", "key": {"HCV 5'NTR RNA": {"test_system": "HCV 5'NTR RNA", "test": "Gel electrophoretic mobility shift analysis (EMSA) of PNA-glucosamine conjugate binding to HCV 5'NTR RNA transcript", "details": "for gel retardation of the labeled RNA: 20 nM HCV 5'NTR RNA transcript", "protocol": "FIG. 10. Stoichiometry of binding of PNA-glucosamine conjugate to its target sequence: (A) The PCR product corresponding to domains III and IV of 5′NTR and the 36 nucleotide of the N-terminal coding sequence of the HCV core were transcribed to generate 244-base runoff transcripts using a T7 transcription kit from Roche Applied Sciences. The 20 nM of internally 32P labeled HCV 5′NTR RNA transcript was incubated either with various concentrations of PNA-glucosamine conjugate complementary to sequence 352-338 in domain IV of the 5′NTR or (B) scramble PNA-glucosamine conjugate. Binding of the PNA-glucosamine conjugate (PNAHCV 352-338) to its target sequence was evaluated by gel electrophoretic mobility shift analysis (EMSA). Lane 1, control without PNA conjugate; lane 2, 10 nM of PNA conjugate; lane 3, 15 nM of PNA conjugate; lane 4, 20 nM of conjugate, lane 5, 25 nM of conjugate.\nTarget specificity of antisense PNA: Using a PNA-glucosamine conjugate targeted to the translation initiation window (352-338: […]) in Domain IV of HCV 5′NTR, we have shown that it has great specificity for the targeted sequence. The PNA-glucosamine conjugate ([…]) forms a tight complex with HCV RNA at a stoichiometric ratio (FIG. 10)."}, "[1]": {"test_system": "HCV subgenomic replicons in MH14 cells", "test": "Inhibition of viral translation and replication in MH14 cells carrying HCV subgenomic replicons", "type": "cell-based"}}}
{"substance": "PNAHCV353-338: PNA-glucosamine conjugate targeted to the translation initiation window (352-338: TTCGTGCTCATGGTG) in Domain IV of HCV 5'NTR (all peptide nucleic acid (PNA); glucosamine conjugate attached)", "values": [{"measurement": "gel retardation of the labeled RNA", "setting": "HCV 5'NTR RNA; 1:0.5 ratio of target RNA to PNA conjugate", "value": 50, "unit": "%"}, {"measurement": "gel retardation of the labeled RNA", "setting": "HCV 5'NTR RNA; 1:0.75 ratio of target RNA to PNA conjugate", "value": 75, "unit": "%"}, {"measurement": "gel shift of the target RNA", "setting": "HCV 5'NTR RNA; stoichiometric ratios of 1:1 or greater", "value": "complete gel shift"}, {"measurement": "HCV translation (viral protein NS5B, Western blot)", "setting": "[1]; 72 h, 50, 100 and 200 nM conjugate (FIG. 13A)", "value": "efficiently blocked at a subnanomolar concentration"}, {"measurement": "HCV replication (viral RNA, RT PCR)", "setting": "[1]; 72 h, 50, 100 and 200 nM conjugate (FIG. 13B)", "value": "efficiently blocked at a subnanomolar concentration"}]}
